Laboratory results as given in patent US20220218667A1, “DUAL INHIBITORS OF SOLUBLE EPOXIDE HYDROLASE AND METHODS OF USE THEREOF” (OROX Biosciences, Inc., priority 2019, published 2022).
Values joined by “and” are separate entries in the source; they are usually repeats but may differ in a detail not shown here. Identical values can stand only once. “Also recorded” adds a separate entry of the source.

Key:
[1] = test system: C57B/L6 mice exposed to bleomycin; test: Example 1: prophylactic treatment of mice exposed to bleomycin (IPF model); type: in vivo, mouse
Text: 4-(5-phenyl-3-{3-[3-(4-trifluoromethyl-phenyl)-ureido]-propyl}-pyrazol-1-yl)-benzenesulfonamide (PTUPB) [termed OX1] was compared to Pirfenidone, Nintedanib, and GSK225629415 [termed OX3] for treatment of IPF using an established model for IPF treating, which is prophylactic treatment of mice exposed to the chemotherapeutic agent bleomycin. […] Pirfenidone and Nintedanib are standard of care for the treatment of idiopathic pulmonary fibrosis and served as reference compounds in the experiment.
C57B/L6 mice were used in the experiments. When used, Bleomycin was administered intra-oropharyngeally, 1.5 U/kg, QD per established protocol. The test articles were dosed via oral gavage in 200 μL/day vehicle. The doses and formulations of test articles were selected based on the literature describing the lowest doses capable of eliciting pharmacological action.
Animals were dosed with the test articles (or vehicle) starting at day −1 to day 20. On day 1, daily doses of Bleomycin commenced in all but group 1 (negative control) which received the vehicle. On day 21, all animals were weighed and sacrificed. After lungs and bronco-alveolar lavage fluid (BALF) were harvested, they were prepared according to standard procedures for further analysis and histology. All animals were assessed twice a week for body weight and overall appearance. Efficacy endpoints measured in this study included lung weight, total leukocytes, and histology as determined by Mason's Trichrome stain and scored using a modified Ashcroft score.
The following parameters were measured in bronchoalveolar fluid (BALF): 1) soluble collagen and 2) differential leukocyte counts for different leukocyte populations.
After weighing and removal of BALF from the lungs, they were inflated and fixed using 10% neutral buffered formalin for histopathology analysis. Fifty-four formalin-fixed lung samples from mice were submitted to HistoTox Labs and were processed routinely. Two slides from each block were sectioned and stained with hematoxylin and eosin (H&E) or Masson's trichrome. Glass slides were evaluated with light microscopy by a board-certified veterinary pathologist. Lung sections were scored according to the modified Ashcroft scale.

COX-2 = target: T1, COX-2 (Homo sapiens, UniProt P35354); test: COX-2 inhibition IC50, COX Fluorescent Inhibitor Screening Assay; type: biochemical
T1 construct: purchased Cayman Chemical 700100
T1 sequence (P35354 18-604): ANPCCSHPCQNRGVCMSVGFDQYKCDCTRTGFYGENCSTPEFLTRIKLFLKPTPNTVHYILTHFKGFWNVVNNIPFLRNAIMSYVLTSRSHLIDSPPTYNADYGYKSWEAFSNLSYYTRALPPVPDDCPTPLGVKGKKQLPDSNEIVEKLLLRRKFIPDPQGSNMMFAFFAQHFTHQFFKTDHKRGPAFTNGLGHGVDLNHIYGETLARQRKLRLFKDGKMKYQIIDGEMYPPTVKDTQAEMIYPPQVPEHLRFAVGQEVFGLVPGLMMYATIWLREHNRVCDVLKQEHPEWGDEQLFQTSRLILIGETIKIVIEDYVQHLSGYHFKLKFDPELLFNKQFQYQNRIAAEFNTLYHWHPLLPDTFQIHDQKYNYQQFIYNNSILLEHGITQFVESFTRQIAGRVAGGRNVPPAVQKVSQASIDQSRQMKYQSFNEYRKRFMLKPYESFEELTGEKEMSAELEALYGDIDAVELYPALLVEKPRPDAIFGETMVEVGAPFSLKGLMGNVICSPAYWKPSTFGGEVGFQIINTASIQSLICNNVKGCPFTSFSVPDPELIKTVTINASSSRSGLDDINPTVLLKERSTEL
Method: A COX Fluorescent Inhibitor Screening Assay Kit (catalog number 700100, Cayman Chemical, Ann Arbor, Mich.) is useful for assaying the ability of the compounds provided herein to inhibit ovine COX-1 and human recombinant COX-2 (% inhibition at 100 μM and IC50 values (M), respectively). Stock solutions of test compounds are dissolved in a minimum volume of DMSO. 10 μl of various concentrations of the test compound solutions, e.g., [I]final between 0.01 and 100 μM, are added to a series of supplied reaction buffer solutions (150 μl, 100 mM Tris-HCl, pH 8.0) with either COX-1 or COX-2 (10 μl) enzyme in the presence of Heme (10 μl) and a fluorometric substrate (10 μl). The reactions are initiated by quickly adding 10 μl of arachidonic acid solution and then incubating the system for two minutes at room temperature. Fluorescence of resorufin, which is produced by the reaction between PGG2 and fluorometric substrate, ADHP (10-acetyl-3,7-dihydroxyphenoxazine), is analyzed with an excitation wavelength of 535 nm and an emission wavelength of 590 nm. The intensity of this fluorescence is proportional to the amount of resorufin, which is proportional to the amount of PGG2 present in the well during the incubation. Percent inhibition is calculated by comparison from the 100% initial activity sample value (no inhibitor).

[2] = day 21, OX1, OX3, Nintedanib 30 mg/kg QD, Pirfenidone 100 mg/kg BID, oral
[3] = day 21, compared to vehicle (Group 2), OX1, OX3, Nintedanib 30 mg/kg QD, Pirfenidone 100 mg/kg BID

NS(=O)(=O)c1ccc(-n2nc(CCCNC(=O)Nc3ccc(C(F)(F)F)cc3)cc2-c2ccccc2)cc1 [OX1, 4-(5-phenyl-3-{3-[3-(4-trifluoromethyl-phenyl)-ureido]-propyl}-pyrazol-1-yl)-benzenesulfonamide]
body weight change at end of experiment compared to starting point ([1]; bleomycin mice, OX1 30 mg/kg QD oral gavage day -1 to 20, day 21 vs day -1, 30 mg/kg): −1% and ~1%
body weight course over 21 days ([1]; bleomycin mice, oral gavage day -1 to 20, OX1, OX3, Nintedanib 30 mg/kg QD, Pirfenidone 100 mg/kg BID): lost the least weight
lung weight (indicator of fluid accumulation and inflammation) ([1]; day 21, OX1 30 mg/kg QD oral): performed best in reducing bronchoalveolar fluid (BALF) accumulation and inflammation
soluble collagen in BALF ([1]; day 21, OX1 30 mg/kg QD oral, 30 mg/kg): most effective in controlling the overall collagen production; also recorded: most effective test article in lowering production of soluble collagen
neutrophil migration into BALF [1, 2]: effective
number of lymphocytes in BALF [1, 2]: most effective at maintaining a large number of lymphocytes
total cell (leukocyte) count in BALF [1, 2]: did not demonstrate the same level of reduction
increased collagen (fibrosis) score, trichrome [1, 3]: lowest tissue deposition of collagen; also recorded: markedly reduced
mean Ashcroft score (lung histology) [1, 3]: markedly reduced
mean score for mixed peribronchiolar/perivascular inflammation [1, 3]: lower
IC50 (COX-2): 100 nM
